Test results published in article PMC11364104, “Discovery of SARS-CoV-2 papain-like protease (PL^pro) inhibitors with efficacy in a murine infection model” (Science Advances, 2024).

Assays:
GABA Transporter = experiment: CEREP transporters-binding; conditions: 30 µM
Human Cathepsin D = target: T1, Human Cathepsin D (Homo sapiens, UniProt P07339); experiment: biochemical
T1 construct: assay run at Reaction Biology Corporation

[1] = target: T2, Glucocorticoid Receptor (Binding) (Homo sapiens, UniProt P04150); experiment: CEREP NHR-binding
T2 construct: purchased Eurofins Cerep

[2] = test system: Nicotinic Ach Receptor (muscle); experiment: CEREP ion channel-binding; conditions: 30 µM
Lck Kinase = target: T3, Lck Kinase (Homo sapiens, UniProt P06239); experiment: CEREP kinase inhibition; type: biochemical
T3 construct: purchased Eurofins Cerep

Serotonin 3 = target: T4, Serotonin 3 (Homo sapiens, UniProt P46098); experiment: CEREP ion channel-binding
T4 construct: purchased Eurofins Cerep

NMDA Receptor (PCP site) = experiment: CEREP ion channel-binding; conditions: 30 µM
PPAR gamma (Binding) = target: T5, PPAR gamma (Binding) (Homo sapiens, UniProt P37231); experiment: CEREP NHR-binding
T5 construct: purchased Eurofins Cerep

[3] = target: T6, human Cav1.2/β2a/α2δ1 calcium channel (Homo sapiens, UniProt Q13936); experiment: hCav1.2 automated patch clamp; type: cell-based; conditions: read-out: CaV IC50
T6 construct: assay run at Metrion Biosciences Ltd; host or cells: HEK
Description: 1000 rcf for 2 min and resuspended in CHO-S-SFM II (Gibco) at a density of 3 million cells […]
Ionic currents were evaluated in the whole-cell configuration using the Qube384 automated planar patch clamp platform (Sophion Bioscience A/S, Ballerup, Denmark). QChip 384X plates, containing 10 patch clamp holes per well, were used to maximize success rate, which was routinely > 95%. For hERG experiments, the external solution was composed of (in mM): 140 NaCl, 2 KCl, 2 CaCl2, 1 MgCl2, 10 HEPES, 5 Glucose, pH 7.4, 350 mOsM. The internal solution contained (in mM): 20 KCl, 10 EGTA, 10 HEPES, 120 KF, pH 7.2, 335 mOsM. The hERG current was elicited from a holding potential of -80 mV by a voltage step to +40 mV for 500 ms, followed by a repolarizing ramp to -80 mV at -0.6 mV/ms. […] Peak hERG current was measured during the ramp. […]
This was followed by the addition of increasing concentrations of test compound, with each exposure lasting 5 minutes. Patch clamp data were analyzed using Analyzer Software 6.4.72 (Sophion Bioscience A/S, Ballerup, Denmark). Current amplitudes were determined by averaging the last 4 currents under each test condition. […]
Hz, and hCav1.2 current was measured as the peak current at 0 mV. […]
exposure lasting 5 minutes. Patch clamp data were analyzed using Analyzer Software 6.4.72. Current amplitudes were determined by averaging the last 4 currents under each test condition. […]

[4] = target: T7, Angiotensin Converting Enzyme (Homo sapiens, UniProt P12821); experiment: CEREP enzyme inhibition; type: biochemical
T7 construct: purchased Eurofins Cerep

in vitro = conditions: dog, plasma
[5] = test system: SARS-CoV-2 strain USA-WA1/2020; experiment: dNHBE (human airway epithelial) cell infection model; type: cell-based; conditions: Severe acute respiratory syndrome coronavirus 2, Epithelial cell; dNHBE (human airway epithelial) cells; plaque assay 3 dpi
Abl Kinase = target: T8, Abl Kinase (Homo sapiens, UniProt P00519); experiment: CEREP kinase inhibition; type: biochemical
T8 construct: purchased Eurofins Cerep

[6] = test system: GABAa (benzodiazepine Site); experiment: CEREP ion channel-binding; conditions: 30 µM
L-Type Ca (Diltiazem) = experiment: CEREP ion channel-binding; conditions: 30 µM
Human Cathepsin F = target: T9, Human Cathepsin F (Homo sapiens, UniProt Q9UBX1); experiment: biochemical
T9 construct: assay run at BPS Bioscience

PDE4D2 = target: T10, PDE4D2 (Homo sapiens, UniProt Q08499); experiment: CEREP enzyme inhibition; type: biochemical
T10 construct: purchased Eurofins Cerep

Human Thrombin = target: T11, Human Thrombin (Homo sapiens, UniProt P00734); experiment: biochemical
T11 construct: assay run at Reaction Biology Corporation

T4 sequence (P46098 24-478): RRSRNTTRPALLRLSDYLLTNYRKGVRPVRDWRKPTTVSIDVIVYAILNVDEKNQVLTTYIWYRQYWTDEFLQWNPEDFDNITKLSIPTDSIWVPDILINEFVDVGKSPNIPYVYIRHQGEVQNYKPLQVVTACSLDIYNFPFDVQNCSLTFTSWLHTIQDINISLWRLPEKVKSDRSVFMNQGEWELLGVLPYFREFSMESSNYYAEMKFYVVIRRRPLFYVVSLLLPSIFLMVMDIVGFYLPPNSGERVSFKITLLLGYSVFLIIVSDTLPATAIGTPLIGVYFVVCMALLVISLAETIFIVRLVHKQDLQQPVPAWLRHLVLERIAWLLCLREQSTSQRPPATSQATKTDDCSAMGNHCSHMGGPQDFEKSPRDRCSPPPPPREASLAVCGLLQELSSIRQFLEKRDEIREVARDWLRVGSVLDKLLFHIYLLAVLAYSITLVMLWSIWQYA
T3 sequence (P06239 whole entry): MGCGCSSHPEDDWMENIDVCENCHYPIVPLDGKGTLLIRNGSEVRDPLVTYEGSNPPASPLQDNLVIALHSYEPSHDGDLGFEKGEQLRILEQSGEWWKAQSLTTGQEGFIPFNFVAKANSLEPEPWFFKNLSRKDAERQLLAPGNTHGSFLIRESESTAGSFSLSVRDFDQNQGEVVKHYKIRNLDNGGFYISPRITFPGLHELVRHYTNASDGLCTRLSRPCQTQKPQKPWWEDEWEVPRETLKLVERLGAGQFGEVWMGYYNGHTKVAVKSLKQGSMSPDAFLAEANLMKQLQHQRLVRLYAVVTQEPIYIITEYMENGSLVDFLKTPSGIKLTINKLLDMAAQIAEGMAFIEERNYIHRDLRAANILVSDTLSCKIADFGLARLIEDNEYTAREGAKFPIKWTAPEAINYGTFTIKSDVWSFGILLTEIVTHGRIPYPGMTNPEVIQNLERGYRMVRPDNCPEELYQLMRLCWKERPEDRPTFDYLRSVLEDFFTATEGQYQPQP
T1 sequence (P07339 65-412): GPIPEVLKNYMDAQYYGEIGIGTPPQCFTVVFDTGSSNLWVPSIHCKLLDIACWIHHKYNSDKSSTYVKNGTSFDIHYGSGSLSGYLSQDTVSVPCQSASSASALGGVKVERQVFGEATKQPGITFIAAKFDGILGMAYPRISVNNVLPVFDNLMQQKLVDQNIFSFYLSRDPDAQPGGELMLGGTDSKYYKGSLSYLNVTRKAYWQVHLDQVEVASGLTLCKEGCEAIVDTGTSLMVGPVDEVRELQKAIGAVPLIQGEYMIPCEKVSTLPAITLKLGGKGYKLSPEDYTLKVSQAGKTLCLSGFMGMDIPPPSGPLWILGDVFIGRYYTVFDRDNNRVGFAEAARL
T9 sequence (Q9UBX1 271-484): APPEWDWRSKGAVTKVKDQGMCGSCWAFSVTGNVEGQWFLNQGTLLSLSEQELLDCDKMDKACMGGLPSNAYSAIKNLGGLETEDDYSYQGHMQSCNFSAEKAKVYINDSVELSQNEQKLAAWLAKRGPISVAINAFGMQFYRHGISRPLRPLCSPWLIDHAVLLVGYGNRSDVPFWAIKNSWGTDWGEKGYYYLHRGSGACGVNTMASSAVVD
T5 sequence (P37231 whole entry): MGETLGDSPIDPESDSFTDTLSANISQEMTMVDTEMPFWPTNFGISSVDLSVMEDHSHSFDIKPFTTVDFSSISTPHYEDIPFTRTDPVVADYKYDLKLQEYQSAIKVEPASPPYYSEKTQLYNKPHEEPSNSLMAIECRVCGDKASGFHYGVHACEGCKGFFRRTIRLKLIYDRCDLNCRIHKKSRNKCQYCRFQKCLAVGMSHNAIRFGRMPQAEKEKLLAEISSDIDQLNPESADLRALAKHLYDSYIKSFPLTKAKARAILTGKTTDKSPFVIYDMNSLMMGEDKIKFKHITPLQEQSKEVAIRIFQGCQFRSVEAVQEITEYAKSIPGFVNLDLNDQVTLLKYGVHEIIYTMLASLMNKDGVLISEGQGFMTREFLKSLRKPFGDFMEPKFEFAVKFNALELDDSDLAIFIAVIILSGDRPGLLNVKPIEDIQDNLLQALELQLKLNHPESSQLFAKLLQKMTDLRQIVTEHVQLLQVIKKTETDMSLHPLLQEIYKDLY
T8 sequence (P00519 whole entry): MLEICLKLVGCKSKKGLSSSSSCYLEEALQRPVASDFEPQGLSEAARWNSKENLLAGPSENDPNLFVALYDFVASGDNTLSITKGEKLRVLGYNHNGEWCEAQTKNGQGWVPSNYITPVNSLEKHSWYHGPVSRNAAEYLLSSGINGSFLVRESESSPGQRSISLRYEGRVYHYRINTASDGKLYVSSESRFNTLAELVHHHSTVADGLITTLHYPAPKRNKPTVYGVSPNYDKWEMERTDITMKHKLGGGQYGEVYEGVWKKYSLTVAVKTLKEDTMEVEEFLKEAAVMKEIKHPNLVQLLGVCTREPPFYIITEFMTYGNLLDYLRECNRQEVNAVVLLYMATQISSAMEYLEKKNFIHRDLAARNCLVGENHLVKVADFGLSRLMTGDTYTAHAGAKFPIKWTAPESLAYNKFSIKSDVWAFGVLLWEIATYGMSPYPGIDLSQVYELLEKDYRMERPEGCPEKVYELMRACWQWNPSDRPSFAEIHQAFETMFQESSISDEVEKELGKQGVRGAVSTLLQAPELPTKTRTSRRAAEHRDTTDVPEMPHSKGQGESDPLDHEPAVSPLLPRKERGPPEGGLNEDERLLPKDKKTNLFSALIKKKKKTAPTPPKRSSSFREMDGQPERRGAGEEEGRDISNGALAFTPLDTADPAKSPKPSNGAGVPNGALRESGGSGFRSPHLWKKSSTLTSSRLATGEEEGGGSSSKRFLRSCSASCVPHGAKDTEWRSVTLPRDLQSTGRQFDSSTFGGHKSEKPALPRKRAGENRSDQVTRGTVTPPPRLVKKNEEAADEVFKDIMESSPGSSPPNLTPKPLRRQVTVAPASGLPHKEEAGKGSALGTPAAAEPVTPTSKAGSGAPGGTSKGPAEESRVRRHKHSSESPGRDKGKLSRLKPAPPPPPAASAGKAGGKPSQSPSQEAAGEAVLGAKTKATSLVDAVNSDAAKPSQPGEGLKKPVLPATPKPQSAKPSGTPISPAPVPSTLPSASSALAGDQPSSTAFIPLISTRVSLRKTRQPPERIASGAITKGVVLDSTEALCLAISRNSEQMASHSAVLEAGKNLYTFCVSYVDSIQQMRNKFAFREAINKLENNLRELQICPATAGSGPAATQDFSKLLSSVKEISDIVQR
T7 sequence (P12821 30-1306): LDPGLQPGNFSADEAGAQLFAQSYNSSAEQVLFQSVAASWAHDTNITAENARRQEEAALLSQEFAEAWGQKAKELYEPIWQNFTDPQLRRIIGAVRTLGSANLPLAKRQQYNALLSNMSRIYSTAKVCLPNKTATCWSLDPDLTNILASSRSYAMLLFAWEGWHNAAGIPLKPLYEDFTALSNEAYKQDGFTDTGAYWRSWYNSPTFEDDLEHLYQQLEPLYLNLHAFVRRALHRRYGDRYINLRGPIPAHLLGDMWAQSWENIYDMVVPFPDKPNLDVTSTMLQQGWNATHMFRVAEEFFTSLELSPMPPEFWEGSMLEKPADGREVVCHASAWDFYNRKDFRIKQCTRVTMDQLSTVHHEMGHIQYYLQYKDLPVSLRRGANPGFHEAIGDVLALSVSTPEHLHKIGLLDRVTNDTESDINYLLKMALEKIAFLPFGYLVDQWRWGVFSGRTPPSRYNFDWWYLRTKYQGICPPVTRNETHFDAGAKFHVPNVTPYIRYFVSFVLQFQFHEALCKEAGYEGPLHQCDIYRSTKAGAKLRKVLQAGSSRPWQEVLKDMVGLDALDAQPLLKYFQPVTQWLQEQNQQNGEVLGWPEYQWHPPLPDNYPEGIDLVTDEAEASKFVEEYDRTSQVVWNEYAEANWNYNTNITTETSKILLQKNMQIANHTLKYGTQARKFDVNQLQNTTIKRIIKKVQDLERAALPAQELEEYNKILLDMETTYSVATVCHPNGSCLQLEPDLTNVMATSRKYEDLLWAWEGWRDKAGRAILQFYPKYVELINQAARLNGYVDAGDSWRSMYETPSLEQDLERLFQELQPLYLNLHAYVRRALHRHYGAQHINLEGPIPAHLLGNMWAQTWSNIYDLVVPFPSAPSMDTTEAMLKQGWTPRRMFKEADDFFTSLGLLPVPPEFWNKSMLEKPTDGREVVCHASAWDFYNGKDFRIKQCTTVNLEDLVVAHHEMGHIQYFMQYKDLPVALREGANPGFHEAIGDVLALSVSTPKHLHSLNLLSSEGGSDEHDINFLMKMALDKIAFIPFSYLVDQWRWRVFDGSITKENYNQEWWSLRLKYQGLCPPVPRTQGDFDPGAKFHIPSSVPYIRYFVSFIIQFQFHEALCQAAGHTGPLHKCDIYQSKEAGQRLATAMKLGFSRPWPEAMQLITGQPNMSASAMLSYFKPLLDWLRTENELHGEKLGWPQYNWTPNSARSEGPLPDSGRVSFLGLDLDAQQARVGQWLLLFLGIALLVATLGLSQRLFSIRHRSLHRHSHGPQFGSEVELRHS
T10 sequence (Q08499 303-809): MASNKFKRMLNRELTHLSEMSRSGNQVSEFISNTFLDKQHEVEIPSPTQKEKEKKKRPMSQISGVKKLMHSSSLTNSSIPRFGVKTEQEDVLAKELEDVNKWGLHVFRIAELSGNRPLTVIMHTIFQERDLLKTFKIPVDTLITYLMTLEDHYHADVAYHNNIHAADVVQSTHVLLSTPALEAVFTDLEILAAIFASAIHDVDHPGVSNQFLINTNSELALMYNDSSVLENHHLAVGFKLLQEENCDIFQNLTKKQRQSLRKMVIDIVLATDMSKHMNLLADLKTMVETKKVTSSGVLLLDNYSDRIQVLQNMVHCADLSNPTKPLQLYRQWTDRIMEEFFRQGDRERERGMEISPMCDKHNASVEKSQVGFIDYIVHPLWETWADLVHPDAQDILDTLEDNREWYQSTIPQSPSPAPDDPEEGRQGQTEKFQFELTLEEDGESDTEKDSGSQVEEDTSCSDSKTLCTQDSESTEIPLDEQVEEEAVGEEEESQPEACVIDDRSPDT

Which “% inhibition” value (GABA Transporter) does the source give for `Cc1ccc(N2CCN(C)CC2)cc1C(=O)NC1(c2cc(-c3cnn(C)c3)nc3ccccc23)CC1` [Compound 4] here?
Its value is -4%.

And the IC50 (Human Cathepsin D)?
The IC50 was greater than 100 µM.

And the inhibition at 30 µM [1]?
The inhibition at 30 µM was 2%.

What about the “% inhibition” value [2] of the same compound?
The value was 2%.

And the inhibition at 30 µM (Lck Kinase)?
Its inhibition at 30 µM is -1%.

What about the inhibition at 30 µM (Serotonin 3) of the same compound?
Its inhibition at 30 µM is -10%.

What about the “% inhibition” value (NMDA Receptor (PCP site)) of the same compound?
Its value is 14%.

And the inhibition at 30 µM (PPAR gamma (Binding))?
Its inhibition at 30 µM is 9%.

And the IC50 [3]?
The IC50 was greater than 100 µM.

And the inhibition at 30 µM [4]?
The inhibition at 30 µM was 14%.

And the fraction unbound (in vitro)?
The fraction unbound was 0.176.

And the EC50 [5]?
Its EC50 is 0.0139 µM.

And the EC90 [5]?
Its EC90 is 0.0567 µM.

What about the inhibition at 30 µM (Abl Kinase) of the same compound?
Its inhibition at 30 µM is 2%.

What about the “% inhibition” value [6] of the same compound?
Its value is 7%.

What about the “% inhibition” value (L-Type Ca (Diltiazem)) of the same compound?
The value was 10%.

What about the IC50 (Human Cathepsin F) of the same compound?
The IC50 was greater than 100 µM.

What about the inhibition at 30 µM (PDE4D2) of the same compound?
The inhibition at 30 µM was 20%.

What about the IC50 (Human Thrombin) of the same compound?
The IC50 was greater than 100 µM.
